In patent US8415469B2, “Compounds and methods for kinase modulation, and indications therefor” (Plexxikon Inc., priority 2005, dated 2013):

Legend:
Assay type in all cases: biochemical
B-Raf = biological target: T1, B-Raf (Homo sapiens, UniProt P15056); assay: AlphaScreen kinase assay, B-Raf; settings: read-out: IC50, activity toward kinase B-Raf
T1 construct: purchased Upstate Biotechnology

B-Raf V600E = biological target: T2, B-Raf V600E (Homo sapiens, UniProt P15056, V600E); assay: AlphaScreen kinase assay, B-Raf V600E; settings: read-out: IC50, activity toward kinase B-Raf V600E
T2 construct: P4254. pFastBacBD-CDC37 BRAF D437-K722-X, V600E; His6 with pFastBac HT leader (TEV site) (N); made in house; host or cells: Sf9 (baculovirus; chaperone CDC37 co-expressed)

Fms = biological target: T3, Fms (Homo sapiens, UniProt P07333); assay: AlphaScreen kinase assay, Fms; settings: read-out: IC50, activity toward kinase Fms
T3 construct: purchased Upstate Biotechnology

Kit = biological target: T4, Kit (Homo sapiens, UniProt P10721); assay: AlphaScreen kinase assay, Kit; settings: read-out: IC50, activity toward kinase Kit
T4 construct: P1332.N6 BI PTP KIT M552-K948-X COD; His6 (N); made in house; host or cells: E. coli (PTP1B co-expressed)

FGFR1 = biological target: T5, FGFR1 (Homo sapiens, UniProt P11362, C488A/C584S); assay: AlphaScreen kinase assay, FGFR1; settings: read-out: IC50, activity toward kinase FGFR
T5 construct: P1351.pET N6 BI-PTP FGFR A458-E765-X C488A, C584S; made in house; host or cells: E. coli (PTP1B co-expressed)
T5 sequence (P11362 458-765 C488A/C584S): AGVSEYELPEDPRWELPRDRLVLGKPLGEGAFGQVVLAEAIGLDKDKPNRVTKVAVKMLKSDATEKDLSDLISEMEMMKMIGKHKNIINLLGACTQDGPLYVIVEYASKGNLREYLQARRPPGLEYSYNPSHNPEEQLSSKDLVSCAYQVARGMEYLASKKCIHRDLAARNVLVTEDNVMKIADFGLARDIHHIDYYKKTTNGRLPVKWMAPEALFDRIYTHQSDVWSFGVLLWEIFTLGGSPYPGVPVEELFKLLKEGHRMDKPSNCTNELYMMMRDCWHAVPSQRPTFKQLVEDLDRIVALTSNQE

T1 sequence (P15056 whole entry): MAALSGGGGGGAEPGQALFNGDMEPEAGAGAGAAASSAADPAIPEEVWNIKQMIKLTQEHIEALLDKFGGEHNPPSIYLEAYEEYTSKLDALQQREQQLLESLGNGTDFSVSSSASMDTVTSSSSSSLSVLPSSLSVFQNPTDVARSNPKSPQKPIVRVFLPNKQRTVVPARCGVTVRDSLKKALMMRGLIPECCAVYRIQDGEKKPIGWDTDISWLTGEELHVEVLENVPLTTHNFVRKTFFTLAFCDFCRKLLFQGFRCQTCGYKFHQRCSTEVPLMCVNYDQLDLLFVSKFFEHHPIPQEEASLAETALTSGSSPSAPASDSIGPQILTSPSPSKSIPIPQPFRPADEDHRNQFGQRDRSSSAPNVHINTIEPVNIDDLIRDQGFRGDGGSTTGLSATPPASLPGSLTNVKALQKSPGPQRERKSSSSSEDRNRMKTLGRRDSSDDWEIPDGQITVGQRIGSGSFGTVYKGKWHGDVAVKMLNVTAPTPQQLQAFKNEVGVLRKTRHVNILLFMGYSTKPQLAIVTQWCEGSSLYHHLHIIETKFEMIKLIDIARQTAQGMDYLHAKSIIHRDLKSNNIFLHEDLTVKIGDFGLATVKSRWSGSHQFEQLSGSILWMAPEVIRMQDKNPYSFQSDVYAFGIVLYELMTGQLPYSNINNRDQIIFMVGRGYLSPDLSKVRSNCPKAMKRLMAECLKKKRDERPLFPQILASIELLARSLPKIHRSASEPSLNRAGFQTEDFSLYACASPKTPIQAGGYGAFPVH
T2 sequence (P15056 with tags, fused parts or gaps V600E): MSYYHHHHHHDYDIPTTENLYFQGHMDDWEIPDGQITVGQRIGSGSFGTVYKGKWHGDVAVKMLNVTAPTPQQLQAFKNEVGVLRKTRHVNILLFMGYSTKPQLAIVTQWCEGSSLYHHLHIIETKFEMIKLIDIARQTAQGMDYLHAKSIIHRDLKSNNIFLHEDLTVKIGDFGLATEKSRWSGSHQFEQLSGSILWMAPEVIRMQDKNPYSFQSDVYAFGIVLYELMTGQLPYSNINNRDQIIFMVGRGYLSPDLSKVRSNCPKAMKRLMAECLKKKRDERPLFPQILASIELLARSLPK
T4 sequence (P10721 with tags, fused parts or gaps): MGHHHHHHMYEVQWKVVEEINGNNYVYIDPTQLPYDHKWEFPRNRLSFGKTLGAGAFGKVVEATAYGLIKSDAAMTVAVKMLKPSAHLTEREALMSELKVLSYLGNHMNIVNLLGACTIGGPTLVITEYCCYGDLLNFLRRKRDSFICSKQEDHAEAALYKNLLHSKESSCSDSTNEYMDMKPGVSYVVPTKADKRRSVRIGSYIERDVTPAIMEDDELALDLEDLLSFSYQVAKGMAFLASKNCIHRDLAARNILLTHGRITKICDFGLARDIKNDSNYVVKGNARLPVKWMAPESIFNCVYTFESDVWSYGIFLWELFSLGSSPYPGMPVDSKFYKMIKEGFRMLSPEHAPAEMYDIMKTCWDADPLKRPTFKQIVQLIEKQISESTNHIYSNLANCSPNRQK
T3 sequence (P07333 20-972): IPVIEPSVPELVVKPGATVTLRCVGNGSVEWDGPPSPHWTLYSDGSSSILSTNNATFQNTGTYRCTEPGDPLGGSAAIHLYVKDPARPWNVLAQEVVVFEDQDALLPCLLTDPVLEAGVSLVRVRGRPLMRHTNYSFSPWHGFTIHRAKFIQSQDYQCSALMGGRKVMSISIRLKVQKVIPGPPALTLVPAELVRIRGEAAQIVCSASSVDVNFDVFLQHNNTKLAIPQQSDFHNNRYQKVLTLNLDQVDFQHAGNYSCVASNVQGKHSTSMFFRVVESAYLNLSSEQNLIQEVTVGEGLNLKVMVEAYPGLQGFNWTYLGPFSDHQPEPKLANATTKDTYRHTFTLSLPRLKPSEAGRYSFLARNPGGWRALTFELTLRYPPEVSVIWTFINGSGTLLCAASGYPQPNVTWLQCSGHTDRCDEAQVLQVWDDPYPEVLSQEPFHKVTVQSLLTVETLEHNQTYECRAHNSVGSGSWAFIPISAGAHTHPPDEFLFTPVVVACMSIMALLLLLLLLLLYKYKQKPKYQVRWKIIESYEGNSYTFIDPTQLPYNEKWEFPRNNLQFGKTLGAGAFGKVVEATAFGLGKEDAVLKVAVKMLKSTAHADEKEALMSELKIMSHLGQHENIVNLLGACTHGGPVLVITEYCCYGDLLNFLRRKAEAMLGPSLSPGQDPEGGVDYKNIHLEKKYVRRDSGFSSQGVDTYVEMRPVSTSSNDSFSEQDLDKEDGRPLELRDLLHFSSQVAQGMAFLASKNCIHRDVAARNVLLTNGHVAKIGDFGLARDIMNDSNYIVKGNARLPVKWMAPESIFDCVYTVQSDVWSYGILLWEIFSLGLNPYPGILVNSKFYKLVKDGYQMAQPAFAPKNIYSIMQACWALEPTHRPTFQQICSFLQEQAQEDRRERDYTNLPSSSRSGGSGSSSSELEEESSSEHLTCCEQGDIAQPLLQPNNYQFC

IC50 (B-Raf)	IC50 (B-Raf V600E)	IC50 (Fms)	IC50 (Kit)	IC50 (FGFR1)	Structure (SMILES)
≤ 10 µM	≤ 10 µM	≤ 10 µM	–	–	O=C(c1c(F)ccc(NS(=O)(=O)c2ccc(C(F)(F)F)cc2)c1F)c1c[nH]c2ncc(-c3ccc(Cl)cc3)cc12 [Compound P-1670]
≤ 10 µM	≤ 10 µM	≤ 10 µM	–	–	O=C(Nc1cccc(C(=O)c2c[nH]c3ncccc23)c1)Nc1cccc(C(F)(F)F)c1 [Compound P-1746, 1-[3-(1H-Pyrrolo[2,3-b]pyridine-3-carbonyl)-phenyl]-3-(3-trifluoromethyl-phenyl)-urea]
≤ 10 µM	≤ 10 µM	≤ 10 µM	–	–	COC(=O)c1ccc(S(=O)(=O)Nc2ccc(F)c(C(=O)c3c[nH]c4ncc(Cl)cc34)c2F)o1 [Compound P-1907, 5-[3-(5-Chloro-1H-pyrrolo[2,3-b]pyridine-3-carbonyl)-2,4-difluoro-phenylsulfamoyl]-furan-2-carboxylic acid methyl ester]
≤ 10 µM	≤ 10 µM	≤ 10 µM	–	–	O=C(Nc1cccc(Cl)c1)Nc1cccc(C(=O)c2c[nH]c3ncc(-c4cccnc4)cc23)c1 [Compound P-1726, 1-(3-Chloro-phenyl)-3-[3-(5-pyridin-3-yl-1H-pyrrolo[2,3-b]pyridine-3-carbonyl)-phenyl]-urea]
≤ 10 µM	≤ 10 µM	≤ 10 µM	–	–	O=C(Nc1cccc(C(=O)c2c[nH]c3ncc(Cl)cc23)c1)Nc1cccc(C(F)(F)F)c1 [Compound P-1747, 1-[3-(5-Chloro-1H-pyrrolo[2,3-b]pyridine-3-carbonyl)-phenyl]-3-(3-trifluoromethyl-phenyl)-urea]
≤ 10 µM	≤ 10 µM	≤ 10 µM	–	–	O=C(Nc1cccc(Cl)c1)Nc1cccc(C(=O)c2c[nH]c3ncccc23)c1 [Compound P-1710, 1-(3-Chloro-phenyl)-3-[3-(1H-pyrrolo[2,3-b]pyridine-3-carbonyl)-phenyl]-urea]
≤ 10 µM	≤ 10 µM	≤ 10 µM	–	–	O=C(c1c(F)ccc(NS(=O)(=O)c2cc3ccccc3s2)c1F)c1c[nH]c2ncc(Cl)cc12 [Compound P-1799, Benzo[b]thiophene-2-sulfonic acid [3-(5-chloro-1H-pyrrolo[2,3-b]pyridine-3-carbonyl)-2,4-difluoro-phenyl]-amide]
≤ 10 µM	≤ 10 µM	≤ 10 µM	–	–	O=C(Nc1ccc(F)cc1)Nc1cccc(C(=O)c2c[nH]c3ncc(-c4ccc(F)cc4)cc23)c1 [Compound P-1816, 1-(4-Fluoro-phenyl)-3-{3-[5-(4-fluoro-phenyl)-1H-pyrrolo[2,3-b]pyridine-3-carbonyl]-phenyl}-urea]
≤ 10 µM	≤ 10 µM	≤ 10 µM	–	–	CN(C)c1ccc(NC(=O)Nc2cccc(C(=O)c3c[nH]c4ncc(Cl)cc34)c2)cc1 [Compound P-1782, 1-[3-(5-Chloro-1H-pyrrolo[2,3-b]pyridine-3-carbonyl)-phenyl]-3-(4-dimethylamino-phenyl)-urea]
≤ 10 µM	≤ 10 µM	≤ 10 µM	–	–	O=C(c1c(F)ccc(NS(=O)(=O)c2ccc(-c3ccccn3)s2)c1F)c1c[nH]c2ncc(Cl)cc12 [Compound P-1800, 5-Pyridin-2-yl-thiophene-2-sulfonic acid [3-(5-chloro-1H-pyrrolo[2,3-b]pyridine-3-carbonyl)-2,4-difluoro-phenyl]-amide]
≤ 10 µM	≤ 10 µM	–	≤ 10 µM	–	O=C(c1c(F)ccc(NS(=O)(=O)c2ccc(F)cc2)c1F)c1c[nH]c2ncccc12 [Compound P-1865, N-[2,4-Difluoro-3-(1H-pyrrolo[2,3-b]pyridine-3-carbonyl)-phenyl]-4-fluoro-benzenesulfonamide]
≤ 10 µM	≤ 10 µM	≤ 10 µM	–	–	N#Cc1ccc(S(=O)(=O)Nc2cccc(C(=O)c3c[nH]c4ncccc34)c2)cc1 [Compound P-1701]
≤ 10 µM	≤ 10 µM	≤ 10 µM	–	–	O=C(Nc1cccc(Cl)c1)Nc1cccc(C(=O)c2c[nH]c3ncc(Cl)cc23)c1 [Compound P-1736, 1-(3-Chloro-phenyl)-3-[3-(5-chloro-1H-pyrrolo[2,3-b]pyridine-3-carbonyl)-phenyl]-urea]
≤ 10 µM	≤ 10 µM	≤ 10 µM	–	–	O=C(Nc1cccc(C(=O)c2c[nH]c3ncccc23)c1)Nc1ccc(C(F)(F)F)c(Cl)c1 [Compound P-1766, 1-(3-Chloro-4-trifluoromethyl-phenyl)-3-[3-(1H-pyrrolo[2,3-b]pyridine-3-carbonyl)-phenyl]-urea]
≤ 10 µM	≤ 10 µM	≤ 10 µM	–	–	O=C(Nc1cccnc1)Nc1cccc(C(=O)c2c[nH]c3ncccc23)c1 [Compound P-1781, 1-Pyridin-3-yl-3-[3-(1H-pyrrolo[2,3-b]pyridine-3-carbonyl)-phenyl]-urea]
≤ 10 µM	≤ 10 µM	≤ 10 µM	–	–	COc1ccc(NC(=O)Nc2cccc(C(=O)c3c[nH]c4ncccc34)c2)cn1 [Compound P-1763, 1-(6-Methoxy-pyridin-3-yl)-3-[3-(1H-pyrrolo[2,3-b]pyridine-3-carbonyl)-phenyl]-urea]
≤ 10 µM	≤ 10 µM	≤ 10 µM	–	–	COc1ccc(NC(=O)Nc2cccc(C(=O)c3c[nH]c4ncc(Cl)cc34)c2)cn1 [Compound P-1774, 1-[3-(5-Chloro-1H-pyrrolo[2,3-b]pyridine-3-carbonyl)-phenyl]-3-(6-methoxy-pyridin-3-yl)-urea]
≤ 10 µM	≤ 10 µM	≤ 10 µM	–	–	O=C(Nc1cccc(C(=O)c2c[nH]c3ncc(Cl)cc23)c1)Nc1ccc(F)c(F)c1 [Compound P-1735, 1-[3-(5-Chloro-1H-pyrrolo[2,3-b]pyridine-3-carbonyl)-phenyl]-3-(3,4-difluoro-phenyl)-urea]
≤ 10 µM	–	–	≤ 10 µM	–	O=C(c1c(F)ccc(NS(=O)(=O)c2ccsc2)c1F)c1c[nH]c2ncc(Cl)cc12 [Compound P-1268, Thiophene-3-sulfonic acid [3-(5-chloro-1H-pyrrolo[2,3-b]pyridin-3-carbonyl)-2,4-difluoro-phenyl]-amide]
≤ 10 µM	–	–	≤ 10 µM	≤ 10 µM	COc1cccc(Cc2c[nH]c3ncc(Br)cc23)c1 [Compound P-0556]
≤ 10 µM	≤ 10 µM	≤ 10 µM	–	–	COCCOc1ccc(-c2cnc3[nH]cc(C(=O)c4c(F)ccc(NS(=O)(=O)c5ccc(C(F)(F)F)cc5)c4F)c3c2)cc1 [Compound P-2013, N-(2,4-Difluoro-3-{5-[4-(2-methoxy-ethoxy)-phenyl]-1H-pyrrolo[2,3-b]pyridine-3-carbonyl}-phenyl)-4-trifluoromethyl-benzenesulfonamide]
≤ 10 µM	≤ 10 µM	≤ 10 µM	–	–	O=C(Nc1cccc(F)c1)Nc1cccc(C(=O)c2c[nH]c3ncc(-c4ccc(F)cc4)cc23)c1 [Compound P-1819, 1-(3-Fluoro-phenyl)-3-{3-[5-(4-fluoro-phenyl)-1H-pyrrolo[2,3-b]pyridine-3-carbonyl]-phenyl}-urea]
≤ 10 µM	≤ 10 µM	≤ 10 µM	–	–	COc1ccc(-c2cnc3[nH]cc(C(=O)c4c(F)ccc(NS(=O)(=O)c5cccc(F)c5)c4F)c3c2)cn1 [Compound P-2012, N-{2,4-Difluoro-3-[5-(6-methoxy-pyridin-3-yl)-1H-pyrrolo[2,3-b]pyridine-3-carbonyl]-phenyl}-3-fluoro-benzenesulfonamide]
≤ 10 µM	≤ 10 µM	≤ 10 µM	–	–	O=C(c1cc(NS(=O)(=O)c2cccc(F)c2)ccc1F)c1c[nH]c2ncc(Cl)cc12 [Compound P-1665]
≤ 10 µM	≤ 10 µM	–	–	≤ 10 µM	O=S(=O)(Nc1ccc(F)c(C(O)c2c[nH]c3ncc(Cl)cc23)c1F)c1ccc(C(F)(F)F)cc1 (stereo not drawn) [Compound P-1539]
≤ 10 µM	≤ 10 µM	–	–	–	O=C(Nc1cccc(C(=O)c2c[nH]c3ncc(-c4ccc(F)cc4)cc23)c1)Nc1cc(C(F)(F)F)ccc1Cl [Compound P-1752, 1-(2-Chloro-5-trifluoromethyl-phenyl)-3-{3-[5-(4-fluoro-phenyl)-1H-pyrrolo[2,3-b]pyridine-3-carbonyl]-phenyl}-urea]
≤ 10 µM	≤ 10 µM	–	–	≤ 10 µM	CCCS(=O)(=O)Nc1ccc(F)c(C(=O)c2c[nH]c3ncc(CCC(=O)O)cc23)c1F [Compound P-1270, 3-3-[2,6-difluoro-3-(propane-1-sulfonylamino)-benzoyl]-1H-pyrrolo[2,3-b]pyridin-5-yl-propionic acid]
≤ 10 µM	≤ 10 µM	–	–	–	O=C(c1c(F)ccc(NS(=O)(=O)c2cc(F)cc(F)c2)c1F)c1c[nH]c2ncc(Cl)cc12 [Compound P-1841, N-[3-(5-chloro-1H-pyrrolo[2,3-b]pyridine-3-carbonyl)-2,4-difluoro-phenyl]-3,5-difluorobenzenesulfonamide]
≤ 10 µM	≤ 10 µM	–	–	≤ 10 µM	CCCS(=O)(=O)Nc1cccc(C(=O)c2c[nH]c3ncc(Br)cc23)c1 [Compound P-1116, propane-1-sulfonic acid [3-(5-bromo-1H-pyrrolo[2,3-b]pyridin-3-carbonyl)-phenyl]-amide]

Structure (SMILES)	IC50 (B-Raf)	IC50 (B-Raf V600E)	IC50 (Fms)	IC50 (Kit)	IC50 (FGFR1)
CCCCOc1ccc(NC(=O)Nc2cccc(C(=O)c3c[nH]c4ncccc34)c2)cc1 [Compound P-1715, 1-(4-Butoxy-phenyl)-3-[3-(1H -pyrrolo[2,3-b]pyridine-3-carbonyl)-phenyl]-urea]	≤ 10 µM	≤ 10 µM	≤ 10 µM	–	–
